target: T1, glutaminase (GAC) (Homo sapiens, UniProt O94925); test: Glutaminase coupled endpoint enzymatic assay (Example A); assay type: biochemical; details: inhibition of glutaminase; assay of Example A or Example B
T1 sequence (O94925 55-598 isoform O94925-3 limits assumed): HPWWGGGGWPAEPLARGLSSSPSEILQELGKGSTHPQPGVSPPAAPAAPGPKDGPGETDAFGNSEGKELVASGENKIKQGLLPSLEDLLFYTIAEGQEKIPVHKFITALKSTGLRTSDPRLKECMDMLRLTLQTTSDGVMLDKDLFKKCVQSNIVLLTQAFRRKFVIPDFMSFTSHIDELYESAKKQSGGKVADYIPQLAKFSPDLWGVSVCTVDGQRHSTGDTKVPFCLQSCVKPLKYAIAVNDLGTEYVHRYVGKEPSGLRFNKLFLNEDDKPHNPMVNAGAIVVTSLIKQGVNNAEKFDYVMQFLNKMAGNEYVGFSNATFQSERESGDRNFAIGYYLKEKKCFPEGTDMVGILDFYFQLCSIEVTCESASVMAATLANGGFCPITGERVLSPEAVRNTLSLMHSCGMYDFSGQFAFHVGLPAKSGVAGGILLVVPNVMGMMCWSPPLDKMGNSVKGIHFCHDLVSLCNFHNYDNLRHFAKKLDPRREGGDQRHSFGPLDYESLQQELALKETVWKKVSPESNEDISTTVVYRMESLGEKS
Excerpt: In certain embodiments, exemplary compounds of Formula I include the compounds described in Table 1 and in the Examples. A compound described herein may be tested for its ability to inhibit glutaminase, e.g., by an assay as described in the Examples. For simplicity, the inhibition activity of these compounds is represented as an IC50 tested in an assay of Example A or Example B in Table 1. […] “N/A” refers to compounds wherein the IC50 is unavailable.
In this example, the enzymatic activity of glutaminase is measured through a coupled endpoint assay. Glutamine and phosphate are supplied to GAC at a concentration equal to Km and AC50, respectively, and GAC concentration is adjusted to give a linear reaction for 60 minutes. The glutamate produced is converted to 2-OG by a kinetic excess of glutamate dehydrogenase. This second step is configured for 2×Km for NAD, since excess NAD is inhibitory. However, a kinetic excess of the third coupling enzyme, diaphorase, recycles NAD from NADH to keep the NAD concentration constant during the timecourse of the assay. Diaphorase, also supplied in kinetic excess, oxidizes NADH produced by GDH back to NAD with the concomitant reduction of rezasurin to the highly fluorescent resorufin. Resorufin in measured after the assay is stopped with SDS by Ex544/Em590. A reduction in the signal indicates inhibition of some component of the coupled enzyme system. Prospective hits are counterscreened against GDH/diaphorase alone to remove hits to the coupling enzyme system in a second assay.
2. Buffers • 2× Buffer (300 mM NaCl, 100 mM HEPES pH 8.5, 0.1% BSA, 0.5 mM EDTA, 100 mM sodium phosphate pH 8.5) • 5× Substrate Mix (1× Buffer final concentration, with 13 mM glutamine, 100 μM resazurin, 50 μg/ml diaphorase) • 1.2× Enzyme Mix (1× Buffer final concentration, with 0.875 μg/ml GAC, 1.56 mM NAD, 6.25 units/ml GDH) • Stop Mix (6% SDS in ddH2O) Reaction Procedure • 1. Add 1 μl compound in 100% DMSO • 2. Add 40 μl of Enzyme Mix and incubate for 60 minute at room temperature • 3. Add 10 μl of Substrate Mix to start reaction • 4. Stop reaction with 25 μl of 6% SDS and read Ex544 Em 590

First: O=C(Cc1cccc(N2CC(F)(F)C2)n1)Nc1nnc([C@H]2CCC[C@H](c3nnc(NC(=O)C4CC4)s3)C2)s1 [Compound 283]
Second: COC1CN(c2cccc(CC(=O)Nc3nnc([C@H]4CCC[C@H](c5nnc(NC(=O)Cc6cccc(N7CC(OC)C7)n6)s5)C4)s3)n2)C1 [Compound 270, N,N′-(5,5′-((1S,3S)-cyclohexane-1,3-diyl)bis(1,3,4-thiadiazole-5,2-diyl))bis(2-(6-(3-methoxyazetidin-1-yl)pyridin-2-yl)acetamide)]
The IC50 of the first is higher: 100 to 500 nM for the first, less than 100 nM for the second.

Compared with `O=C(Cc1ccccn1)Nc1nnc(C[C@H]2C[C@@H]2Cc2nnc(NC(=O)Cc3ccccn3)s2)s1` (racemic) [Compound 3, N,N′-(5,5′-(trans-cyclopropane-1,2-diylbis(methylene))bis(1,3,4-thiadiazole-5,2-diyl))bis(2-(pyridin-2-yl)acetamide)], `CCOc1ccnc(CC(=O)Nc2nnc([C@H]3CCC[C@H](c4nnc(NC(=O)Cc5cc(OCC)ccn5)s4)C3)s2)c1` [Compound 247, N,N′-(5,5′-((1S,3S)-cyclohexane-1,3-diyl)bis(1,3,4-thiadiazole-5,2-diyl))bis(2-(4-ethoxypyridin-2-yl)acetamide)] is lower in IC50: 500 to 1000 nM for the first, less than 100 nM for the second.

First: O=C(Cc1c[nH]c2ccccc12)Nc1nnc([C@H]2CCC[C@H](c3nnc(NC(=O)Cc4c[nH]c5ccccc45)s3)C2)s1 [Compound 22]
Second: Cn1cc(CC(=O)Nc2nnc([C@H]3CCC[C@H](c4nnc(NC(=O)Cc5cn(C)c6ccccc56)s4)C3)s2)c2ccccc21 [Compound 16, N,N′-(5,5′-((1S,3S)-cyclohexane-1,3-diyl)bis(1,3,4-thiadiazole-5,2-diyl))bis(2-(1-methyl-1H-indol-3-yl)acetamide)]
The IC50 of the first is lower: less than 100 nM for the first, 100 to 500 nM for the second.

`O=C(Cc1cccc2c1OCO2)Nc1nnc([C@H]2CCC[C@H](c3nnc(NC(=O)Cc4cccc5c4OCO5)s3)C2)s1` [Compound 218, N,N′-(5,5′-((1S,3S)-cyclohexane-1,3-diyl)bis(1,3,4-thiadiazole-5,2-diyl))bis(2-(benzo[d][1,3]dioxol-4-yl)acetamide)] and `Nc1ccccc1CC(=O)Nc1nnc([C@H]2CCC[C@H](c3nnc(NC(=O)Cc4ccccc4N)s3)C2)s1` [Compound 56, N,N′-(5,5′-((1S,3S)-cyclohexane-1,3-diyl)bis(1,3,4-thiadiazole-5,2-diyl))bis(2-(2-aminophenyl)acetamide)] cannot be ordered by IC50: less than 100 nM for the first, less than 100 nM for the second.

Compared with `O=C(Cc1cc(N2CC(F)C2)ccn1)Nc1nnc([C@H]2CCC[C@H](c3nnc(NC(=O)Cc4cc(N5CC(F)C5)ccn4)s3)C2)s1` [Compound 256, N,N′-(5,5′-((1S,3S)-cyclohexane-1,3-diyl)bis(1,3,4-thiadiazole-5,2-diyl))bis(2-(4-(3-fluoroazetidin-1-yl)pyridin-2-yl)acetamide)], `O=C(Cc1cc(N2CC(O)C2)ccn1)Nc1nnc([C@H]2CCC[C@H](c3nnc(NC(=O)Cc4cc(N5CC(O)C5)ccn4)s3)C2)s1` [Compound 255, N,N′-(5,5′-((1S,3S)-cyclohexane-1,3-diyl)bis(1,3,4-thiadiazole-5,2-diyl))bis(2-(4-(3-hydroxyazetidin-1-yl)pyridin-2-yl)acetamide)] is higher in IC50: less than 100 nM for the first, 100 to 500 nM for the second. The first is the more potent here.

Compared with `N#Cc1ccccc1CC(=O)Nc1nnc(C2CCC(c3nnc(NC(=O)Cc4ccccc4C#N)s3)C2)s1` (centres unmarked) [Compound 95], `N#Cc1ccccc1CC(=O)Nc1nnc(C2CCCCC(c3nnc(NC(=O)Cc4ccccc4C#N)s3)C2)s1` (centres unmarked) [Compound 127] is higher in IC50: 100 to 500 nM for the first, 500 to 1000 nM for the second.

First: O=C(Cc1cccc(NC2CC(F)(F)C2)n1)Nc1nnc([C@H]2CCC[C@H](c3nnc(NC(=O)Cc4cccc(NC5CC(F)(F)C5)n4)s3)C2)s1 [Compound 250, N,N′-(5,5′-((1S,3S)-cyclohexane-1,3-diyl)bis(1,3,4-thiadiazole-5,2-diyl))bis(2-(6-(3,3-difluorocyclobutylamino)pyridin-2-yl)acetamide)]
Second: O=C(Cc1cccc(NC2CC2)c1)Nc1nnc([C@H]2CCC[C@H](c3nnc(NC(=O)Cc4cccc(NC5CC5)c4)s3)C2)s1 [Compound 261, N,N′-(5,5′-((1S,3S)-cyclohexane-1,3-diyl)bis(1,3,4-thiadiazole-5,2-diyl))bis(2-(3-(cyclopropylamino)phenyl)acetamide)]
The IC50 of the first is higher: 100 to 500 nM for the first, less than 100 nM for the second. The second is the more potent here.

`O=C(Cc1ccc(OC(F)F)cn1)Nc1nnc([C@H]2CCC[C@H](c3nnc(NC(=O)Cc4ccc(OC(F)F)cn4)s3)C2)s1` [Compound 228, N,N′-(5,5′-((1S,3S)-cyclohexane-1,3-diyl)bis(1,3,4-thiadiazole-5,2-diyl))bis(2-(5-(difluoromethoxy)pyridin-2-yl)acetamide)] and `O=C(Cc1ccc(F)cn1)Nc1nnc([C@H]2CCC[C@H](c3nnc(NC(=O)Cc4ccc(F)cn4)s3)C2)s1` [Compound 240, N,N′-(5,5′-((1S,3S)-cyclohexane-1,3-diyl)bis(1,3,4-thiadiazole-5,2-diyl))bis(2-(5-fluoropyridin-2-yl)acetamide)] cannot be ordered by IC50: less than 100 nM for the first, less than 100 nM for the second.

Compared with `O=C(Cc1cccs1)Nc1nnc([C@H]2CCC[C@H](c3nnc(NC(=O)Cc4cccs4)s3)C2)s1` [Compound 59, N,N′-(5,5′-((1S,3S)-cyclohexane-1,3-diyl)bis(1,3,4-thiadiazole-5,2-diyl))bis(2-(thiophen-2-yl)acetamide)], `CC(=O)Nc1nnc([C@@H]2CCC[C@@H](c3nnc(NC(=O)Cc4cn(C)c5ccccc45)s3)C2)s1` [Compound 13] is higher in IC50: less than 100 nM for the first, 100 to 500 nM for the second. The first is the more potent here.

`O=C(Cc1cccnc1)Nc1nnc(C2CCC(c3nnc(NC(=O)Cc4cccnc4)s3)C2)s1` (centres unmarked) [Compound 103] and `O=C(Cc1cccc(Br)c1)Nc1nnc([C@H]2CCC[C@H](c3nnc(NC(=O)Cc4cccc(Br)c4)s3)C2)s1` [Compound 220, N,N′-(5,5′-((1S,3S)-cyclohexane-1,3-diyl)bis(1,3,4-thiadiazole-5,2-diyl))bis(2-(3-bromophenyl)acetamide)] fall in the same range of IC50: 100 to 500 nM for the first, 100 to 500 nM for the second.

Compared with `COc1ccc(CC(=O)Nc2nnc(C3CCC(c4nnc(NC(=O)Cc5ccc(OC)cc5)s4)C3)s2)cc1` (centres unmarked) [Compound 109], `COc1ccc(CC(=O)Nc2nnc([C@@H]3CCCC[C@@H](c4nnc(NC(=O)Cc5ccc(OC)cc5)s4)C3)s2)cc1` [Compound 130] is higher in IC50: 100 to 500 nM for the first, 1000 to 2000 nM for the second. The first is the more potent here.

`Nc1ccc(CC(=O)Nc2nnc([C@H]3CCC[C@H](c4nnc(NC(=O)Cc5ccc(N)cn5)s4)C3)s2)nc1` [Compound 233, N,N′-(5,5′-((1S,3S)-cyclohexane-1,3-diyl)bis(1,3,4-thiadiazole-5,2-diyl))bis(2-(5-aminopyridin-2-yl)acetamide)] and `COc1ccc(F)c(CC(=O)Nc2nnc([C@H]3CCC[C@H](c4nnc(NC(=O)Cc5cc(OC)ccc5F)s4)C3)s2)c1` [Compound 248, N,N′-(5,5′-((1S,3S)-cyclohexane-1,3-diyl)bis(1,3,4-thiadiazole-5,2-diyl))bis(2-(2-fluoro-5-methoxyphenyl)acetamide)] cannot be ordered by IC50: less than 100 nM for the first, less than 100 nM for the second.

First: COc1cccc(CC(=O)Nc2nnc(C3CCCCC(c4nnc(NC(=O)Cc5cccc(OC)c5)s4)C3)s2)c1 (centres unmarked) [Compound 120]
Second: N#Cc1cccc(CC(=O)Nc2nnc(C3CCCCC(c4nnc(NC(=O)Cc5cccc(C#N)c5)s4)C3)s2)c1 (centres unmarked) [Compound 124]
The IC50 of the first is lower: 500 to 1000 nM for the first, 1000 to 2000 nM for the second. The first is the more potent here.

`O=C(Cc1cccc(N2CCCC2)c1)Nc1nnc([C@H]2CCC[C@H](c3nnc(NC(=O)Cc4cccc(N5CCCC5)c4)s3)C2)s1` [Compound 260, N,N′-(5,5′-((1S,3S)-cyclohexane-1,3-diyl)bis(1,3,4-thiadiazole-5,2-diyl))bis(2-(3-(pyrrolidin-1-yl)phenyl)acetamide)] and `N#Cc1ccc(CC(=O)Nc2nnc(C3CCC(c4nnc(NC(=O)Cc5ccc(C#N)cc5)s4)C3)s2)cc1` (centres unmarked) [Compound 96] fall in the same range of IC50: 100 to 500 nM for the first, 100 to 500 nM for the second.

`CS(=O)(=O)Nc1ccc(CC(=O)Nc2nnc([C@H]3CCC[C@H](c4nnc(NC(=O)Cc5ccc(NS(C)(=O)=O)cc5)s4)C3)s2)cc1` [Compound 238, N,N′-(5,5′-((1S,3S)-cyclohexane-1,3-diyl)bis(1,3,4-thiadiazole-5,2-diyl))bis(2-(4-(methylsulfonamido)phenyl)acetamide)] gave an IC50 of less than 100 nM.
